From ChEMBL document CHEMBL1201862, “PubChem BioAssay data set” (2004)
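Assay format: 96-well plates, 48-hour exposure. Here, GI50 denotes the concentration required for 50% inhibition of growth.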 The source made the active and inactive calls. Cut-off read from the data, not from the text of the source: active = GI50 up to about 1.1 µM and inactive = higher.

Tests used:
Test in all cases: NCI-60 cell line screen, 48 h
LOX IMVI = tested on: LOX IMVI
K562 = tested on: K562
KM-20L2 = tested on: KM-20L2
UACC-62 = tested on: UACC-62
ACHN = tested on: ACHN
UACC-257 = tested on: UACC-257
UO-31 = tested on: UO-31
SR = tested on: SR
SK-MEL-28 = tested on: SK-MEL-28
HL-60 = tested on: HL-60
SNB-19 = tested on: SNB-19
OVCAR-3 = tested on: OVCAR-3
KM12 = tested on: KM12
Malme-3M = tested on: Malme-3M
SW-620 = tested on: SW-620
SN12C = tested on: SN12C
OVCAR-4 = tested on: OVCAR-4

Measured: GI50

CCOc1ccccc1NC(=O)CCC(=O)OC
inactive: LOX IMVI > 31.6 µM | K562 > 56.2 µM | KM-20L2 > 100 µM | UACC-62 > 100 µM | ACHN > 100 µM | UACC-257 > 100 µM | UO-31 > 100 µM | SR > 47 µM | SK-MEL-28 > 100 µM | HL-60 > 51.8 µM | SNB-19 > 100 µM | OVCAR-3 > 100 µM | KM12 > 100 µM | Malme-3M > 100 µM | SW-620 > 42.1 µM | SN12C > 100 µM | OVCAR-4 > 100 µM

N#C/C(=C\c1ccccc1)C(NO)Nc1ccccc1 (stereo not drawn)
inactive: K562 44.7 µM | KM-20L2 > 100 µM | UACC-62 42.1 µM | ACHN 72.9 µM | UACC-257 > 100 µM | UO-31 68.7 µM | SR 20.1 µM | SK-MEL-28 > 100 µM | HL-60 > 100 µM | SNB-19 60.4 µM | OVCAR-3 48.2 µM | KM12 > 100 µM | Malme-3M > 100 µM | SW-620 74.8 µM | SN12C > 100 µM | OVCAR-4 84.3 µM

Nc1nc(Cl)cc(NCCCCCCNc2cc(Cl)nc(N)n2)n1
inactive: LOX IMVI 20.8 µM | K562 28.6 µM | KM-20L2 > 100 µM | UACC-62 12 µM | ACHN 2.88 µM | UACC-257 59.6 µM | UO-31 > 100 µM | SR 42 µM | HL-60 15.2 µM | SNB-19 > 100 µM | OVCAR-3 34 µM | KM12 > 100 µM | SW-620 > 100 µM | SN12C > 100 µM | OVCAR-4 88.9 µM

CCOP(=O)(OCC)OC1C=CC2CCC1C2 (stereo not drawn)
inactive: LOX IMVI > 100 µM | K562 > 100 µM | KM-20L2 > 100 µM | UACC-62 > 100 µM | ACHN > 100 µM | UACC-257 > 100 µM | UO-31 > 100 µM | SR 26.6 µM | SK-MEL-28 > 100 µM | HL-60 > 100 µM | SNB-19 > 100 µM | OVCAR-3 > 100 µM | KM12 > 100 µM | Malme-3M > 100 µM | SN12C > 100 µM | OVCAR-4 > 100 µM

NC(=O)N/N=C1/CCCC/C1=C\c1ccccc1
inactive: LOX IMVI > 100 µM | K562 > 100 µM | KM-20L2 > 100 µM | UACC-62 > 100 µM | ACHN > 100 µM | UACC-257 > 100 µM | UO-31 80.9 µM | SR > 100 µM | SK-MEL-28 > 100 µM | HL-60 > 100 µM | OVCAR-3 > 100 µM | KM12 > 100 µM | Malme-3M > 100 µM | SW-620 > 100 µM | SN12C > 100 µM | OVCAR-4 > 100 µM

C#Cc1cc(CN(CC(=O)OC(C)(C)C)CC(=O)OC(C)(C)C)nc(CN(CC(=O)OC(C)(C)C)CC(=O)OC(C)(C)C)c1
inactive: LOX IMVI 2.37 µM | K562 4.6 µM | KM-20L2 5.43 µM | UACC-62 4.26 µM | ACHN 4.84 µM | UACC-257 2.82 µM | UO-31 3.71 µM | SK-MEL-28 7.5 µM | HL-60 2.98 µM | SNB-19 2.74 µM | OVCAR-3 3.04 µM | KM12 3.72 µM | Malme-3M 4.17 µM | SW-620 4.81 µM | SN12C 6.75 µM | OVCAR-4 6.19 µM

Cc1cc(NS(=O)(=O)c2ccc(NC(=O)c3cccc4c(Nc5ccc(S(=O)(=O)Nc6cc(C)on6)cc5)c5ccccc5nc34)cc2)no1
inactive: LOX IMVI 30.5 µM | K562 36.6 µM | KM-20L2 > 100 µM | UACC-62 17.5 µM | ACHN > 100 µM | UACC-257 > 100 µM | UO-31 38.7 µM | SK-MEL-28 40.3 µM | HL-60 23.7 µM | SNB-19 32.7 µM | OVCAR-3 87.3 µM | KM12 > 100 µM | Malme-3M > 100 µM | SW-620 > 100 µM | SN12C 39.4 µM | OVCAR-4 17.2 µM

COc1ccc(C2CCC(Cl)(OC)CC2C=O)cc1 (stereo not drawn)
inactive: LOX IMVI 13.3 µM | K562 > 100 µM | KM-20L2 67.1 µM | UACC-62 58.7 µM | ACHN 95.9 µM | UACC-257 > 100 µM | UO-31 80.4 µM | SR 41.1 µM | SK-MEL-28 21 µM | HL-60 69.5 µM | SNB-19 73.6 µM | OVCAR-3 94.2 µM | KM12 > 100 µM | Malme-3M 44.9 µM | SW-620 54.3 µM | SN12C > 100 µM | OVCAR-4 > 100 µM

Cc1ccc(NC(=O)C2C(=O)C(=O)N(c3ccc(C)cc3)C2=O)cc1 (stereo not drawn)
inactive: K562 > 100 µM | KM-20L2 > 100 µM | UACC-62 > 100 µM | ACHN > 100 µM | UACC-257 > 100 µM | UO-31 > 100 µM | SR > 100 µM | SK-MEL-28 > 10 µM | HL-60 > 100 µM | SNB-19 > 100 µM | KM12 > 100 µM | Malme-3M > 100 µM | SW-620 > 100 µM | SN12C > 100 µM | OVCAR-4 > 100 µM

CC(C)(C)N/N=N/c1cn(C2OC(CO)C(O)C2O)c(=O)[nH]c1=O (stereo not drawn)
inactive: LOX IMVI 41.7 µM | K562 40.7 µM | KM-20L2 > 100 µM | UACC-62 > 100 µM | ACHN > 100 µM | UACC-257 > 100 µM | UO-31 > 100 µM | SR 20.8 µM | SK-MEL-28 > 100 µM | HL-60 50.9 µM | SNB-19 > 100 µM | OVCAR-3 > 100 µM | KM12 > 100 µM | Malme-3M > 100 µM | SW-620 17.6 µM | SN12C > 100 µM

COC(=O)C(CCC1(C)OCCO1)C(C)=O (stereo not drawn)
inactive: LOX IMVI > 100 µM | K562 > 100 µM | KM-20L2 > 100 µM | ACHN > 100 µM | UACC-257 > 100 µM | UO-31 > 100 µM | SR 84.3 µM | SK-MEL-28 > 100 µM | HL-60 > 100 µM | SNB-19 > 100 µM | OVCAR-3 > 100 µM | KM12 > 100 µM | Malme-3M > 100 µM | SW-620 > 100 µM | SN12C > 100 µM | OVCAR-4 > 100 µM

O=C1C=CC(=CC=C2C=CN(CCCCCCCCCCC(=O)NCCCCCCCCCCCC(=O)O)C=C2)C=C1
inactive: LOX IMVI > 100 µM | K562 > 100 µM | KM-20L2 > 100 µM | UACC-62 > 100 µM | ACHN > 100 µM | UACC-257 > 100 µM | UO-31 > 100 µM | SR > 100 µM | SK-MEL-28 > 100 µM | HL-60 > 100 µM | SNB-19 > 100 µM | OVCAR-3 > 100 µM | KM12 > 100 µM | Malme-3M > 100 µM | SW-620 > 100 µM | SN12C > 100 µM | OVCAR-4 > 100 µM
